Experimental data taken from US5221616A, “Prevention of spontaneous complement activation in mammalian biological fluids” (Quidel Corporation, priority 1988, dated 1993).

Assays:
[1] = molecular target: T1, C3 (Homo sapiens, UniProt P01024); assay: iC3b fragment EIA: spontaneous C3 activation in EDTA-NHP incubated with increasing concentrations of polyhydroxyl compound in water; format: biochemical; settings: 22° C. for 48 hr
T1 construct: 250 μL of freshly drawn EDTA-normal human plasma (EDTA-NHP); from tissue; host or cells: normal human blood plasma (EDTA plasma; in A12 also citrate and heparin plasma)
Experimental: FIG. 1. […] 250 μL of freshly drawn EDTA-normal human plasma (EDTA-NHP) was mixed with 0 to 250 μL of 4M β-D-glucose dissolved in deionized water. All reaction mixtures were brought up to a final reaction volume of 500 μL using deionized water as the diluent. Each reaction mixture was mixed thoroughly, incubated at 22° C. for 48 hr and assayed for iC3b fragment levels. A non-incubated control (-70° C.) was prepared by mixing 1 part EDTA-NHP with 1 part 4M β-D-glucose dissolved in deionized water. This control reaction mixture was stored at -70° C. until it was assayed in the iC3b fragment EIA along with the incubated experimental samples.
Several different polyhydroxyl compounds were individually dissolved in deionized water to obtain solutions of each compound at a concentration approaching saturation at 22° C. Freshly drawn EDTA-NHP was mixed with increasing concentrations of the polyhydroxyl compound to be tested keeping the final reaction volumes constant. For example, 250 μL of freshly drawn EDTA-NHP was mixed with 0 to 250 μL of the concentrated polyhydroxyl solution to be tested. All reaction mixtures were brought up to a final reaction volume of 500 μL using deionized water as the diluent. Each reaction mixture was mixed thoroughly and incubated at 22° C. for 48 hr. A non-incubated control was prepared for each experiment by mixing 1 part EDTA-NHP with 1 part of the concentrated polyhydroxyl solution to be tested. This control mixture was held at -70° C. until it was thawed out, along with the other experimental samples, and assayed for the occurrence of spontaneous complement activation. For this initial set of experiments, iC3b fragment levels were quantitated in all test samples using the Cytotech monoclonal antibody based EIA procedure. The first analyte selected to be measured was iC3b since, based on previously published data as outlined above, it was anticipated that the C3 protein would be the most susceptible to spontaneous activation upon storage of EDTA-NHP in vitro.
All of the EIA tests employed in these studies utilized solid-phase monoclonal antibody capture assay kit procedures (Cytotech, Inc., San Diego, Calif.). The procedure was basically the same for each EIA kit. Briefly, in the first step of each EIA assay, 100 μL of standards, controls and diluted test specimens were incubated at 22° C., i.e., room temperature, in duplicate polystyrene microtiter wells precoated with a capture monoclonal antibody which specifically reacted with the complement fragment or complex under investigation. During this first incubation period, complement fragments or complexes were bound to the monoclonal antibody coated microassay wells. A wash cycle removed unbound materials.
In the second step, 50 μL of horseradish peroxidase (HRP)-conjugated purified IgG antibody, which reacted with the captured complement fragment or complex analyte, was added to each well and incubated at 22° C. A wash cycle removed unbound conjugate.
In the third step, 100 μL of the HRP enzyme substrate ABTS (0.034% ABTS and 0.0126% H2 O2 in 100 mM sodium citrate buffer, pH 4.0) was added to each well and incubated at 22° C. The bound HRP-conjugatedantibody reacted with the ABTS substrate producing a green color which was proportional to the amount of specimen analyte bound. The HRP-enzymatic reaction was stopped upon addition of 50 μL 250 mM oxalic acid. The substrate color intensity present in each well was measured at 405 nm using an automated EIA microplate reader and the analyte concentration/mL in the original test specimen was determined for each analyte from the appropriate standard curve.
iC3b EIA: The capture mouse monoclonal antibody used to coat microtiter wells for the iC3b fragment EIA was Cytotech MoAb 013III-1.1.6.1 which reacts with a neoantigenic determinant expressed on the iC3b activation fragment of human C3.

[2] = molecular target: T2, Factor B (Homo sapiens, UniProt P00751); assay: polyhydroxyl compounds in Buffer B mixed with EDTA-NHP: Bb fragment EIA; format: biochemical; settings: final concentration 2M, 22° C. for 48 hr
T2 construct: from tissue; host or cells: normal human EDTA plasma (EDTA-NHP)
Experimental: An extensive series of experiments were conducted to examine the ability of a large variety of polyhydroxyl compounds to prevent the spontaneous activation of C in EDTA-NHP during in vitro storage at 22° C for 48 hr. EDTA-NHP was mixed with an equal volume of Buffer B containing the polyhydroxyl compound to be tested. In these experiments Buffer B consisted of 40 mM EDTA and 30 IU sodium heparin/mL dissolved in deionized water, pH 7.2. The final concentration of polyhydroxyl compound dissolved in Buffer B varied for each compound due to differences in solubility. For each set of experiments, EDTA-NHP was also diluted and mixed with an equal volume of PBS (untreated control). […] This conclusion was based upon the iC3b percent protection values determined for each of the polyhydroxyl compounds (treated samples) as listed in FIG. 14.
The concentrations, expressed as μg analyte/mL, of a number of different activation products of spontaneous complement activation were measured in the course of these experiments. In an effort to normalize the data obtained from the various determinations so that the results from different assays could be directly compared to one another, a percent protection value was calculated for each analyte measured. […]

T1 sequence (P01024 672-1663 limits assumed): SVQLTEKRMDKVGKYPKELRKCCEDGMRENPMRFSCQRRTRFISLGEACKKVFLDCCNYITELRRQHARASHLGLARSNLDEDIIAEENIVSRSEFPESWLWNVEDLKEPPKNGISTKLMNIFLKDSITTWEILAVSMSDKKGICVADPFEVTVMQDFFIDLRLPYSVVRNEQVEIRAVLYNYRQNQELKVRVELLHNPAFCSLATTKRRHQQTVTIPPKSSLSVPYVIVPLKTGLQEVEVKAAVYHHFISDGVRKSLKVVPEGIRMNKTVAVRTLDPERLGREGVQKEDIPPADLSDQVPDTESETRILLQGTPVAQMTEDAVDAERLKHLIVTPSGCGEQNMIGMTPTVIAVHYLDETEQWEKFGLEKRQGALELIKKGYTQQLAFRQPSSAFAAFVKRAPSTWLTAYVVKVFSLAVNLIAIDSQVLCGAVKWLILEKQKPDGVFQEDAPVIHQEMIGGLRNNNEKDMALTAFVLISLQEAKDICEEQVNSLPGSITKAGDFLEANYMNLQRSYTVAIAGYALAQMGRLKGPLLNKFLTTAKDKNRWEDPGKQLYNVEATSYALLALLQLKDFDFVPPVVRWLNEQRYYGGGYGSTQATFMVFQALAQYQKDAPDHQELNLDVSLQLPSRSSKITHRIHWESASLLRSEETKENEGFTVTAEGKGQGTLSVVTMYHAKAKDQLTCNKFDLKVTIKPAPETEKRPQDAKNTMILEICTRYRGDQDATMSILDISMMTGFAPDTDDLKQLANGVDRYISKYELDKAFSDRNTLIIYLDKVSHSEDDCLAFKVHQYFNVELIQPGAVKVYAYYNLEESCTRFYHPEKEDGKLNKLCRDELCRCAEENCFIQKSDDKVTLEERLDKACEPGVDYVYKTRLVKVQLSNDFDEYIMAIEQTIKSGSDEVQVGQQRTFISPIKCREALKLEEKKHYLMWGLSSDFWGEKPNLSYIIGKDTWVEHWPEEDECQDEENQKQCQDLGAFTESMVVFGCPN
T1 sequence (P01024 23-667 limits assumed): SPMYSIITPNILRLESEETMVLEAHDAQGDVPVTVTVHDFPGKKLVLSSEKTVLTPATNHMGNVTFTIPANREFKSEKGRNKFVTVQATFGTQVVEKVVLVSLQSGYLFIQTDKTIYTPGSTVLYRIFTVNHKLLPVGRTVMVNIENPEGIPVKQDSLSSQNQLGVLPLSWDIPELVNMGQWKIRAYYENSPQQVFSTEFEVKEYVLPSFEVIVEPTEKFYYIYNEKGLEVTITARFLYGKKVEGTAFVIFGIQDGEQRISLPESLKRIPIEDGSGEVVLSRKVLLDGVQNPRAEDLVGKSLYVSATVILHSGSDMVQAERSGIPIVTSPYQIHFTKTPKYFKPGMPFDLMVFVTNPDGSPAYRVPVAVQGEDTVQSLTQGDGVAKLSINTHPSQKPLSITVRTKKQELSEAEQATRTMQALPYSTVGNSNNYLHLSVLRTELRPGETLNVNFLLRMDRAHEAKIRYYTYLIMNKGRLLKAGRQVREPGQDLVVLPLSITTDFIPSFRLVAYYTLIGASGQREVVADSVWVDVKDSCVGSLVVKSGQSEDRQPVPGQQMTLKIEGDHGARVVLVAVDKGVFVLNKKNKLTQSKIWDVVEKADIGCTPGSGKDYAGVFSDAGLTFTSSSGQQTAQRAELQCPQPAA
T2 sequence (P00751 26-764): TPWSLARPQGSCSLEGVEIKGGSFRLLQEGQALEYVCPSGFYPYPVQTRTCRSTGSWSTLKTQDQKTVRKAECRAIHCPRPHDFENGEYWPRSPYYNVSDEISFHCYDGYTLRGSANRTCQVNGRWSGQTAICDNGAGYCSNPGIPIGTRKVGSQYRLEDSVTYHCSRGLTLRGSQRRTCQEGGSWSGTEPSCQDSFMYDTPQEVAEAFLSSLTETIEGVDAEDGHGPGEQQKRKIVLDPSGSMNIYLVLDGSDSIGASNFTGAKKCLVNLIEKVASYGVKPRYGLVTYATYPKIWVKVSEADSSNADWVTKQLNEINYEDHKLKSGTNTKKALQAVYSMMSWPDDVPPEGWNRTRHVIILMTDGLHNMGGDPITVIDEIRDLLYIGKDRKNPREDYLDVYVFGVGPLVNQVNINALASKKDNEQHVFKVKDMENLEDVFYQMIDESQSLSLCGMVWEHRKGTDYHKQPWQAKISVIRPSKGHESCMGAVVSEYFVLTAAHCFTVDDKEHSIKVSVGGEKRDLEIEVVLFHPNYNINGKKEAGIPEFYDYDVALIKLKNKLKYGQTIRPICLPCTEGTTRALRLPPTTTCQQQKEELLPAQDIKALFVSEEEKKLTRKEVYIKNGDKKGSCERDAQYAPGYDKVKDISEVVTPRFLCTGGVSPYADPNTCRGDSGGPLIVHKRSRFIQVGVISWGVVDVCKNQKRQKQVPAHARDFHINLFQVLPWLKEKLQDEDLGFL

OC[C@H]1O[C@@H](O)[C@H](O)[C@@H](O)[C@@H]1O [β-D-glucose]
final concentration that completely prevented spontaneous iC3b fragment production ([1]; compared with -70° C. control): ≥ 1.3 M | spontaneous iC3b fragment production ([1]; increasing final concentrations of compound (galactose up to 2M)): inhibited with increasing concentrations | prevention of spontaneous activation of Factor B (Bb fragment production) [2]: completely prevented
